From patent US5602153A, “Method of using 1-arylheteroarylalkyl substituted-1H-1,2,4-triazole compounds for treatment of a giaucoma disorder” (G.D. Searle & Co., priority 1993, dated 1997)
Where two headings read alike, the source gives them in different places.

What was measured:
rabbit aortic rings = target: T1, rabbit aortic rings (Oryctolagus cuniculus, UniProt P34976); experiment: Assay B: In Vitro Vascular Smooth Muscle-Response for AII (antagonist activity in rabbit aortic rings); format: cell-based, rabbit (male New Zealand white); details: antagonist 10^-5 M for 5 min, AII challenge
T1 construct: The thoracic aorta was removed, cleaned of adherent fat and connective tissue; from tissue; host or cells: thoracic aorta rings, endothelium removed, male New Zealand white rabbit
T1 sequence (P34976 1-359): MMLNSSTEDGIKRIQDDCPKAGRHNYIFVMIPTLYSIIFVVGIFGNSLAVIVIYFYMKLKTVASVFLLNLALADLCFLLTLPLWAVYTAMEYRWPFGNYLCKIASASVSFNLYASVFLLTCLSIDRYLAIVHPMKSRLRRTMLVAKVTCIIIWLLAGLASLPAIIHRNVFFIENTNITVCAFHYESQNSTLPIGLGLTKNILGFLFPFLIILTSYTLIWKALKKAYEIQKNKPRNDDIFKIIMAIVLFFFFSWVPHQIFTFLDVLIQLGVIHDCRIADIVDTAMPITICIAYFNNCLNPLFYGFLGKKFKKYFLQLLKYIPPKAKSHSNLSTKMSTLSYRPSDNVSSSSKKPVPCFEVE
Method: Assay B: In Vitro Vascular Smooth Muscle-Response for AII The compounds of the invention were tested for antagonist activity in rabbit aortic rings. Male New Zealand white rabbits (2-2.5 kg) were sacrificed using an overdose of pentobarbital and exsanguinated via the carotid arteries. The thoracic aorta was removed, cleaned of adherent fat and connective tissue and then cut into 3-mm ring segments. The endothelium was removed from the rings by gently sliding a rolled-up piece of filter paper into the vessel lumen. The rings were then mounted in a water-jacketed tissue bath, maintained at 37° C., between moveable and fixed ends of a stainless steel wire with the moveable end attached to an FT03 Grass transducer coupled to a Model 7D Grass Polygraph for recording isometric force responses. The bath was filled with 20 ml of oxygenated (95% oxygen/5% carbon dioxide) Krebs solution of the following composition (mM): 130 NaCl, 15 NaHCO3, 15 KCl, 1.2 NaH2 PO4, 1.2 MgSO4, 2.5 CaCl2, and 11.4 glucose. The preparations were equilibrated for one hour before approximately one gram of passive tension was placed on the rings. Angiotensin II concentration-response curves were then recorded (3×10^-10 to 1×10^-5 M). Each concentration of AII was allowed to elicit its maximal contraction, and then AII was washed out repeatedly for 30 minutes before rechallenging with a higher concentration of AII. Aorta rings were exposed to the test antagonist at 10^-5 M for 5 minutes before challenging with AII. Adjacent segments of the same aorta ring were used for all concentration-response curves in the presence or absence of the test antagonist. The effectiveness of the test compound was expressed in terms of pA2 values and were calculated according to H.O. Schild [Br. J. Pharmacol. Chemother., 2, 189-206 (1947)]. The pA2 value is the concentration of the antagonist which increases the EC50 value for AII by a factor of two. Each test antagonist was evaluated in aorta rings from two rabbits.

pressor response to AII = experiment: Assay C: In Vivo Intragastric Pressor Assay Response for AII Antagonists; design: species or system rat (male Sprague-Dawley); details: po; 3 mg/kg i.g., rat, AII 30 ng/kg bolus
Method: Assay C: In Vivo Intragastric Pressor Assay Response for AII Antagonists of the Invention
Male Sprague-Dawley rats weighing 225-300 grams were anesthetized with methohexital (30 mg/kg, i.p.) and catheters were implanted into the femoral artery and vein. The catheters were tunneled subcutaneously to exit dorsally, posterior to the head and between the scapulae. The catheters were filled with heparin (1000 units/ml of saline). The rats were returned to their cage and allowed regular rat chow and water ad libitum. After full recovery from surgery (3-4 days), rats were placed in Lucite holders and the arterial line was connected to a pressure transducer. Arterial pressure was recorded on a Gould polygraph (mmHg). Angiotensin II was administered as a 30 ng/kg bolus via the venous catheter delivered in a 50 μl volume with a 0.2 ml saline flush. The pressor response in mmHg was measured by the difference from pre-injectionarterial pressure to the maximum pressure achieved. The AII injection was repeated every 10 minutes until three consecutive injections yielded responses within 4 mmHg of each other. These three responses were then averaged and represented the control response to AII. The test compound was suspended in 0.5% methylcellulose in water and was administered by gavage. The volume administered was 2 ml/kg body weight. The standard dose was 3 mg/kg. Angiotensin II bolus injections were given at 30, 45, 60, 75, 120, 150, and 180 minutes after gavage. The pressor response to AII was measured at each time point. The rats were then returned to their cage for future testing. A minimum of 3 days was allowed between tests. Percent inhibition was calculated for each time point following gavage by the following formula: [(Control Response-Response at time point)/Control Response]×100.

[1] = first of two rabbits, read-out: pA2 (first value) (converted)
[2] = second of two rabbits, read-out: pA2 (converted)

Row | Kb (rabbit aortic rings; [1]) [nM] | Kb (rabbit aortic rings; [2]) [nM] | Structure (SMILES) | inhibition in vivo at 3 mg/kg (pressor response to AII) [%]
1 | 2.69 | 5.75 | CCCCc1nc(CCCC)n(Cc2ccc(-c3ccccc3-c3nnn[nH]3)nc2)n1 [Example 3, 5-[2-[5-[(3,5-dibutyl-1H-1,2,4-triazol-1-yl)methyl]-2-pyridinyl]phenyl]-1H-tetrazole] | 40
2 | 13.2 | 9.77 | CCCCc1nc(CCCC)n(Cc2ccc(-c3ccccc3-c3nnn[nH]3)cn2)n1 [Example 1, 5-[2-[6-[(3,5-dibutyl-1H-1,2,4-triazol-1-yl)methyl]-3-pyridinyl]phenyl]-1H-tetrazole] | 20
